Reference: the NIST ThermoML archive (doi:10.1016/j.jct.2006.05.008)
Numbers after ± are expanded uncertainties.

Experiment: molar heat capacity at constant pressure
Settings: 101.33 kPa, Small (less than 1 g) adiabatic calorimetry

CCCCn1cc[n+](C)c1.[Br-] [1-butyl-3-methylimidazolium bromide]
Settings	molar heat capacity at constant pressure [J/K/mol]
210 K, Crystal	179.9 ± 0.92
210.34 K, Crystal	180.27 ± 0.92
211.54 K, Glass	201.34 ± 1
212.44 K, Crystal	181.75 ± 0.93
213.66 K, Glass	205.71 ± 1
214.52 K, Crystal	183.24 ± 0.93
215.75 K, Glass	211.67 ± 1
216.61 K, Crystal	184.62 ± 0.94
217.78 K, Glass	223.22 ± 1.1
218.7 K, Crystal	186.06 ± 0.94
219.71 K, Glass	249.71 ± 1.2
220 K, Crystal	186.6 ± 0.92
220.79 K, Crystal	187.32 ± 0.95
222.88 K, Crystal	188.66 ± 0.96
224.97 K, Crystal	190.05 ± 0.96
225.62 K, Liquid	289.04 ± 1.4
227.06 K, Crystal	191.53 ± 0.97
227.7 K, Liquid	289.5 ± 1.4
229.15 K, Crystal	192.85 ± 0.97
229.79 K, Liquid	290.01 ± 1.4
230 K, Crystal	193.1 ± 1
231.24 K, Crystal	194.13 ± 0.98
231.89 K, Liquid	290.69 ± 1.4
233.34 K, Crystal	195.6 ± 0.98
233.98 K, Liquid	291.24 ± 1.4
235.43 K, Crystal	196.86 ± 0.99
236.07 K, Liquid	291.65 ± 1.4
237.53 K, Crystal	198 ± 0.99
238.17 K, Liquid	292.05 ± 1.4
239.63 K, Crystal	199.44 ± 1
240 K, Crystal	199.5 ± 1
240.26 K, Liquid	292.64 ± 1.4
241.72 K, Crystal	200.93 ± 1
242.35 K, Liquid	293.21 ± 1.4
243.82 K, Crystal	202.36 ± 1
244.44 K, Liquid	293.89 ± 1.4
245.93 K, Crystal	203.67 ± 1
246.54 K, Liquid	294.81 ± 1.4
248.03 K, Crystal	205.09 ± 1
248.64 K, Liquid	295.35 ± 1.4
250 K, Crystal	206.2 ± 1
250.12 K, Crystal	206.58 ± 1
250.73 K, Liquid	296.1 ± 1.4
252.22 K, Crystal	208.01 ± 1
252.83 K, Liquid	296.76 ± 1.4
254.32 K, Crystal	209.53 ± 1
256.43 K, Crystal	211.04 ± 1
258.53 K, Crystal	212.45 ± 1
260 K, Crystal	213.2 ± 1.1
260.63 K, Crystal	213.97 ± 1.1
262.74 K, Crystal	215.49 ± 1.1
264.84 K, Crystal	217.16 ± 1.1
266.93 K, Crystal	218.74 ± 1.1
269.03 K, Crystal	220.2 ± 1.1
270 K, Crystal	220.8 ± 1.1
271.12 K, Crystal	222.15 ± 1.1
273.22 K, Crystal	223.99 ± 1.1
275.33 K, Crystal	225.35 ± 1.1
277.43 K, Crystal	227.05 ± 1.1
279.55 K, Crystal	228.43 ± 1.1
280 K, Crystal	228.4 ± 1.1
281.65 K, Crystal	230.01 ± 1.1
283.76 K, Crystal	231.57 ± 1.1
285.86 K, Crystal	232.75 ± 1.1
287.97 K, Crystal	234.48 ± 1.1
290 K, Crystal	235.8 ± 1.2
290.08 K, Crystal	236.13 ± 1.1
292.19 K, Crystal	237.64 ± 1.2
294.31 K, Crystal	239.37 ± 1.2
296.42 K, Crystal	241.14 ± 1.2
298.15 K, Crystal	241.8 ± 1.2
298.54 K, Crystal	243.38 ± 1.2
300 K, Crystal	243.1 ± 1.2
300.66 K, Crystal	245.13 ± 1.2
302.78 K, Crystal	247.98 ± 1.2
304.91 K, Crystal	249.78 ± 1.2
308.84 K, Crystal	254.23 ± 1.2
310 K, Crystal	250.4 ± 1.2
312.32 K, Crystal	258.72 ± 1.2
314.44 K, Crystal	261.85 ± 1.2
320 K, Crystal	257.8 ± 1.2
330 K, Crystal	265.1 ± 1.2
340 K, Crystal	272.5 ± 1.3
350 K, Crystal	279.8 ± 1.3
351.35 K, Crystal	280.8 ± 1.3
351.35 K, Liquid	332.6 ± 1.5
355.98 K, Liquid	334.82 ± 1.5
359.86 K, Liquid	336.11 ± 1.5
360 K, Liquid	336.3 ± 1.6
362.1 K, Liquid	338.41 ± 1.6
364.36 K, Liquid	339.33 ± 1.6
366.64 K, Liquid	339.84 ± 1.6
370 K, Liquid	340.9 ± 1.6
